Structures can show the parent of a compound that is named as a salt.
Experiments:
[1] = tested on: L1210 leukemia; assay: antineoplastic activity against L1210 leukemia in mice, individual treatment (10^5 L1210 cells ip); format: in vivo; settings: for % ILS: 10^5 cells; for Dose/Injection range found safe and effective for providing %ILS of at least 25%, Schedule B: ip injections on days 1, 5 and 9 after implant; for Dose/Injection range found safe and effective for providing %ILS of at least 25%, Schedule C: ip injections on each of days 1-9 after implant; for Dose/Injection range found safe and effective for providing %ILS of at least 25%, Schedule A: single ip injection on day 1 after implant
Description: Schedule A consisted of a single injection administered ip on the first day following implant of the L1210 leukemia cells. (i.e., 24 hours after implant). Schedule B consisted of a three-injection regimen, with one injection being administered ip on each of the first, fifth and ninth days following implant. Schedule C consisted of a nine-injection regimen, with one injection being administered ip on each of the first through ninth days following implant.
In this set of tests, the mice received 10^5 L1210 leukemia cells by ip injection, and were divided into groups of 10, including a control group.

[2] = tested on: L1210 leukemia; assay: combination chemotherapy against L1210 leukemia in mice (10^6 L1210 cells ip, schedule A); format: in vivo; settings: Yoshi-864 and cyclophosphamide 75 mg/kg each; for 60-day Survivors: out of 10, sulfato complex 4 mg/kg
[3] = tested on: L1210 leukemia; assay: antineoplastic activity of hydroxonitrato complex against L1210 leukemia in mice (10^6 L1210 cells ip); format: in vivo; settings: Schedule A
Description: The mice received by ip injection 10^6 L1210 leukemia cells, which produces a somewhat more advance stage of the disease after 24 hours than is obtained upon using 10^5 cells as described previously. The mice were then divided into groups of six, including a control group. […] The highest %ILS value obtained was 144 at a dose level of 10 mg/kg.

[4] = tested on: L1210 leukemia; assay: combination chemotherapy against L1210 leukemia in mice (10^6 L1210 cells ip, schedule A); format: in vivo; settings: Yoshi-864 and cyclophosphamide 75 mg/kg each; for % ILS: dichloro complex 2.5 mg/kg; for 60-Day Survivors: out of 10, dichloro complex 2.5 mg/kg
From the text: The significance of this test system in evaluating potential antineoplastic agents and the test protocol therefor, are described in detail by Geran et al, "Protocols for Screening Chemical Agents and Natural Products Against Animal Tumors and Other Biological Systems" (Third Edition), Cancer Chemotherapy Reports, Part 3, Volume 3, No. 2, Pages 1-103, September 1972. Briefly, the test procedure involves implanting L1210 leukemia cells into mice by intraperitoneal (i.p.) injection, beginning i.p. treatment with the test drug 24 hours after implant, and determining the antineoplastic activity of the test drug at optimum dose levels and schedules of administration as the percent increase in life span (%ILS) of the treated mice over the untreated control mice.
In this set of tests, the mice received by ip injection 10^6 L1210 leukemia cells, which produces a somewhat more advanced stage of the disease after 24 hours than is obtained upon using 10^5 cells as described in the previous set of tests. The mice were then divided into groups of ten, including a control group, and all mice within the same group were given the same treatment. Treatment was administered ip employing the A schedule of administration. […] The treatments tested were each of the three treating agents by themselves and the dichloro complex in combination with each of the other two treating agents. The resulting %ILS values and the number of mice (out of the group of 10) which survived sixty days following implant, are set forth in Table III.

[5] = tested on: Sarcoma 180; settings: Cleare et al 1973; cited from earlier work
[6] = tested on: cancer; settings: in vivo; cited from earlier work
[7] = tested on: ADJ/PC6A plasma cell tumor; settings: in comparison with cis-dichlorodiammineplatinum (II); Connors et al 1972; cited from earlier work
[8] = tested on: L1210 leukemia; settings: Gale et al 1974; cited from earlier work
[9] = highest %ILS regardless of schedule or dose level
[10] = hydroxymalonato complex 30 mg/kg
[11] = out of 10, hydroxymalonato complex 30 mg/kg
[12] = out of 10, dinitrato complex 3 mg/kg
[13] = out of 10, malonato complex 15 mg/kg

Molecule | level of antineoplastic activity greater than that achieved with the dichloro complex [1, 9] | Dose/Injection range found safe and effective for providing %ILS of at least 25%, Schedule B [1] | Dose/Injection range found safe and effective for providing %ILS of at least 25%, Schedule C [1] | Dose/Injection range found safe and effective for providing %ILS of at least 25%, Schedule A [1] | % ILS [2, 10] | 60-Day Survivors [2, 11] | 60-Day Survivors [4] | % ILS ([2]; dinitrato complex 3 mg/kg) | % ILS ([2]; malonato complex 15 mg/kg) | 60-Day Survivors [2, 12] | 60-Day Survivors [2, 13] | 60-day Survivors [2] | % ILS ([2]; sulfato complex 4 mg/kg) | also measured
hydroxymalonato (1,2-diaminocyclohexane) platinum (II) [Hydroxymalonato complex] | 111% | 5 to 37.5 mg/kg | 1 to 15 mg/kg | 2 to 150 mg/kg | 118% | 0 mice |  |  |  |  |  |  |  | % ILS ([1]; Schedule A, 75.0 mg/kg/injection ip): 97%; % ILS ([1]; Schedule B, 37.5 mg/kg/injection ip): 162%; level of antineoplastic activity greater than that achieved with the malonato complex [1, 9]: 19%; potency against L1210 leukemia relative to malonato complex (in words) ([1]; in comparison with malonato complex): even greater potency; water solubility: 1500 µg/mL
NC1CCCCC1N.O=[N+]([O-])[O-].[OH-].[Pt+2] (centres unmarked) [Hydroxonitrato complex, hydroxonitrato (1,2-diaminocyclohexane) platinum (II)] |  | 1 to 5 mg/kg | 0.3 to 1.25 mg/kg | 2.5 to 15 mg/kg |  |  |  |  |  |  |  |  |  | % ILS ([3]; 10 mg/kg ip, 10^6 cells): 144%; greater %ILS value than dichloro complex ([3]; 10^6 cells vs dichloro complex at 10^5 cells): 26%
CS(=O)(=O)OCCCNCCCOS(C)(=O)=O [Yoshi-864, 1-propanol, 3,3'-iminodi-,dimethanesulfonate (ester) hydrochloride] |  |  |  |  | 117% | 0 mice | 0 mice | 116% | 112% | 0 mice | 0 mice | 0 mice | 95% | % ILS [4]: 81%
O=P1(N(CCCl)CCCl)NCCCO1 (centres unmarked) [Cyclophosphamide, cyclophosphamide] |  |  |  |  | 107% | 0 mice | 0 mice | 105% | 118% | 0 mice | 0 mice | 0 mice | 97% | % ILS ([2]; dichloro complex 2.5 mg/kg): 79%
NC1CCCCC1N.O=C([O-])CC(=O)[O-].[Pt+2] (centres unmarked) [Malonato complex, malonato (1,2-diaminocyclohexane) platinum (II)] | 77% | 10 to 40 mg/kg | 5 to 20 mg/kg | 2.5 to 160 mg/kg |  |  |  |  | 80% |  | 0 mice |  |  | % ILS ([1]; Schedule A, 2.5 mg/kg/injection ip): 258%; % ILS ([1]; Schedule A, 40.0 mg/kg/injection ip): 271%; % ILS ([1]; Schedule B, 40.0 mg/kg/injection ip): 157%; % ILS ([1]; Schedule C, 10.0 mg/kg/injection ip): 219%; antitumor activity against Sarcoma 180 (in words) [5]: only marginal antitumor activity
N.N.[Cl][Pt][Cl] [cis-dichlorodiammineplatinum (II)] |  |  |  |  |  |  |  |  |  |  |  |  |  | therapeutic index (in words) [6]: rather low therapeutic index
NC1CCCCC1N.O=[N+]([O-])[O-].O=[N+]([O-])[O-].[Pt+2] (centres unmarked) [Dinitrato complex, dinitrato (1,2-diaminocyclohexane) platinum (II)] | 83% | 0.25 to 4 mg/kg | 0.05 to 2 mg/kg | 0.5 to 8 mg/kg |  |  |  | 110% |  | 0 mice |  |  |  | % ILS ([1]; Schedule A, 4.0 mg/kg/injection ip): 113%; % ILS ([1]; Schedule B, 4.0 mg/kg/injection ip): 247%; % ILS ([1]; Schedule C, 0.5 mg/kg/injection ip): 281%
NC1CCCCC1N.O=S(=O)([O-])[O-].[Pt+2] (centres unmarked) [Sulfato complex, sulfato (1,2-diaminocyclohexane) platinum (II)] | 86% | 0.2 to 5 mg/kg | 0.1 to 1.2 mg/kg | 0.5 to 10 mg/kg |  |  |  |  |  |  |  | 0 mice | 119% | % ILS ([1]; Schedule A, 5.0 mg/kg/injection ip): 116%; % ILS ([1]; Schedule B, 3.33 mg/kg/injection ip): 285%; % ILS ([1]; Schedule C, 0.6 mg/kg/injection ip): 239%
NC1CCCCC1N.[Cl][Pt][Cl] (centres unmarked) [Dichloro complex, dichloro (1,2-diaminocyclohexane) platinum (II)] |  |  |  |  |  |  | 0 mice |  |  |  |  |  |  | ID50 (in words) [7]: quite similar to those of cis-dichlorodiammineplatinum (II); LD50 (in words) [7]: quite similar to those of cis-dichlorodiammineplatinum (II); % ILS ([1]; Schedule A, 6.25 mg/kg/injection ip): 114%; % ILS ([1]; Schedule B, 8.0 mg/kg/injection ip): 113%; % ILS ([1]; Schedule C, 2.0 mg/kg/injection ip): 153%; % ILS [4]: 73%; combination with cyclophosphamide (in words) [8]: combined synergistically; effectiveness against L1210 leukemia (in words) [8]: highly effective; increase in mean survival time in comparison with cis-dichlorodiammineplatinum (II) [8]: up to 54%; antitumor activity against Sarcoma 180 (in words) [5]: only marginal antitumor activity
